Assay results from patent US7432398B2, “Inorganic acid salts of sibutramine” (CJ Corporation, priority 2005, dated 2008).
Where a name gives a salt, the structure may show the parent alone.

test: Evaluation of hygroscopicity: water content (K.F.) after exposure to humid conditions; type: physicochemical; details: 75% and 90% RH, up to 1 week
Experimental: Then, the water content (K.F. water %) of the samples was measured.

Row | Compound | change in water content under humid conditions
1 | CC(C)CC(N(C)C)C1(c2ccc(Cl)cc2)CCC1 (stereo not shown) [Sibutramine HCl hydrate, sibutramine hydrochloride monohydrate, reference compound] | almost no change in water content
2 | sibutramine bromate | almost no change in water content
3 | sibutramine hydrogen sulfate | almost no change in water content
4 | sibutramine phosphate monohydrate [Sibutramine phosphate hydrate] | almost no change in water content

same assay, conditions: 75% relative humidity, 25 °C, 1 week

Row | Compound | water content (K.F. water %) [%]
5 | CC(C)CC(N(C)C)C1(c2ccc(Cl)cc2)CCC1 (stereo not shown) [Sibutramine HCl hydrate, sibutramine hydrochloride monohydrate, reference compound] | 5.5
6 | sibutramine bromate | 0.09
7 | sibutramine hydrogen sulfate | 0.01
8 | sibutramine phosphate monohydrate [Sibutramine phosphate hydrate] | 4.25

same assay, conditions: 75% relative humidity, 25 °C, 3 days

Row | Compound | water content (K.F. water %) [%]
9 | CC(C)CC(N(C)C)C1(c2ccc(Cl)cc2)CCC1 (stereo not shown) [Sibutramine HCl hydrate, sibutramine hydrochloride monohydrate, reference compound] | 5.49
10 | sibutramine bromate | 0.09
11 | sibutramine hydrogen sulfate | 0.02
12 | sibutramine phosphate monohydrate [Sibutramine phosphate hydrate] | 4.24

same assay, conditions: 90% relative humidity, 25 °C, 1 week

Row | Compound | water content (K.F. water %) [%]
13 | CC(C)CC(N(C)C)C1(c2ccc(Cl)cc2)CCC1 (stereo not shown) [Sibutramine HCl hydrate, sibutramine hydrochloride monohydrate, reference compound] | 5.49
14 | sibutramine bromate | 0.08
15 | sibutramine hydrogen sulfate | 0.03
16 | sibutramine phosphate monohydrate [Sibutramine phosphate hydrate] | 4.26

same assay, conditions: 90% relative humidity, 25 °C, 3 days

Row | Compound | water content (K.F. water %) [%]
17 | CC(C)CC(N(C)C)C1(c2ccc(Cl)cc2)CCC1 (stereo not shown) [Sibutramine HCl hydrate, sibutramine hydrochloride monohydrate, reference compound] | 5.5
18 | sibutramine bromate | 0.08
19 | sibutramine hydrogen sulfate | 0.03
20 | sibutramine phosphate monohydrate [Sibutramine phosphate hydrate] | 4.25

same assay, conditions: Initial

Row | Compound | water content (K.F. water %) [%]
21 | CC(C)CC(N(C)C)C1(c2ccc(Cl)cc2)CCC1 (stereo not shown) [Sibutramine HCl hydrate, sibutramine hydrochloride monohydrate, reference compound] | 5.5
22 | sibutramine bromate | 0.09
23 | sibutramine hydrogen sulfate | 0.02
24 | sibutramine phosphate monohydrate [Sibutramine phosphate hydrate] | 4.25

test: Evaluation of solubility in solutions having various pH values; details: DW (distilled water), dissolved at 37° C.
From the text: In Table 8, the solubility is expressed as milligrams (mg) of sibutramine dissolved per milliliter (ml) of solution.

Row | Compound | solubility (mg of sibutramine dissolved per ml of solution) [mg/mL]
25 | sibutramine bromate | 12.78

same assay, conditions: pH 1.2, dissolved at 37° C.

Row | Compound | solubility (mg of sibutramine dissolved per ml of solution) [mg/mL]
26 | sibutramine bromate | 12.43

same assay, conditions: pH 4.0, dissolved at 37° C.

Row | Compound | solubility (mg of sibutramine dissolved per ml of solution) [mg/mL]
27 | sibutramine bromate | 3.64

same assay, conditions: pH 5.3, dissolved at 37° C.

Row | Compound | solubility (mg of sibutramine dissolved per ml of solution) [mg/mL]
28 | sibutramine bromate | 8.96

same assay, conditions: pH 6.8, dissolved at 37° C.

Row | Compound | solubility (mg of sibutramine dissolved per ml of solution) [mg/mL]
29 | sibutramine bromate | 11.08

same assay, conditions: pH 7.4, dissolved at 37° C.

Row | Compound | solubility (mg of sibutramine dissolved per ml of solution) [mg/mL]
30 | sibutramine bromate | 12.41

test: Light stability test, fluorescent light at 25° C., ICH chamber (HPLC content); type: physicochemical; details: Initial
Experimental: A light stability test was performed as follows.

Row | Compound | content (HPLC) on exposure to fluorescent light
31 | CC(C)CC(N(C)C)C1(c2ccc(Cl)cc2)CCC1 (stereo not shown) [Sibutramine HCl hydrate, sibutramine hydrochloride monohydrate, reference compound] | 1.000
32 | sibutramine bromate | 1.000
33 | sibutramine hydrogen sulfate | 1.000
34 | sibutramine phosphate monohydrate [Sibutramine phosphate hydrate] | 1.000

same assay, conditions: fluorescent light, 25° C., 1 wk

Row | Compound | content (HPLC) on exposure to fluorescent light
35 | CC(C)CC(N(C)C)C1(c2ccc(Cl)cc2)CCC1 (stereo not shown) [Sibutramine HCl hydrate, sibutramine hydrochloride monohydrate, reference compound] | 1.000
36 | sibutramine bromate | 1.000
37 | sibutramine hydrogen sulfate | 1.000
38 | sibutramine phosphate monohydrate [Sibutramine phosphate hydrate] | 1.000

same assay, conditions: fluorescent light, 25° C., 2 wks

Row | Compound | content (HPLC) on exposure to fluorescent light
39 | CC(C)CC(N(C)C)C1(c2ccc(Cl)cc2)CCC1 (stereo not shown) [Sibutramine HCl hydrate, sibutramine hydrochloride monohydrate, reference compound] | 0.999
40 | sibutramine bromate | 0.999
41 | sibutramine hydrogen sulfate | 1.000
42 | sibutramine phosphate monohydrate [Sibutramine phosphate hydrate] | 0.999

same assay, conditions: fluorescent light, 25° C., 4 wks

Row | Compound | content (HPLC) on exposure to fluorescent light
43 | CC(C)CC(N(C)C)C1(c2ccc(Cl)cc2)CCC1 (stereo not shown) [Sibutramine HCl hydrate, sibutramine hydrochloride monohydrate, reference compound] | 0.999
44 | sibutramine bromate | 0.999
45 | sibutramine hydrogen sulfate | 0.999
46 | sibutramine phosphate monohydrate [Sibutramine phosphate hydrate] | 0.999

same assay, conditions: fluorescent light, 25° C., content by HPLC

Row | Compound | light stability
47 | CC(C)CC(N(C)C)C1(c2ccc(Cl)cc2)CCC1 (stereo not shown) [Sibutramine HCl hydrate, sibutramine hydrochloride monohydrate, reference compound] | good light stability

test: Stability on stringent 60° C. heat treatment (HPLC content); details: 60° C. heat treatment
Experimental: The inorganic acid salts of sibutramine, prepared in Examples 1, 2 and 3, and sibutramine hydrochloride monohydrate were exposed to a stringent 60° C. heat treatment.
HPLC was performed under the following conditions. Wavelength of UV detection: 225 nm
Column: octadecyl silica gel, C18 (4.6×150 mm, 5 μm)

Row | Compound | chemical stability at high temperature
48 | CC(C)CC(N(C)C)C1(c2ccc(Cl)cc2)CCC1 (stereo not shown) [Sibutramine HCl hydrate, sibutramine hydrochloride monohydrate, reference compound] | good chemical stability
49 | sibutramine bromate | good chemical stability
50 | sibutramine hydrogen sulfate | good chemical stability
51 | sibutramine phosphate monohydrate [Sibutramine phosphate hydrate] | good chemical stability

same assay, conditions: 60° C., 1 wk

Row | Compound | content (HPLC) on 60° C. heat treatment
52 | CC(C)CC(N(C)C)C1(c2ccc(Cl)cc2)CCC1 (stereo not shown) [Sibutramine HCl hydrate, sibutramine hydrochloride monohydrate, reference compound] | 1.000
53 | sibutramine bromate | 0.999
54 | sibutramine hydrogen sulfate | 1.000
55 | sibutramine phosphate monohydrate [Sibutramine phosphate hydrate] | 1.000

same assay, conditions: 60° C., 2 wks

Row | Compound | content (HPLC) on 60° C. heat treatment
56 | CC(C)CC(N(C)C)C1(c2ccc(Cl)cc2)CCC1 (stereo not shown) [Sibutramine HCl hydrate, sibutramine hydrochloride monohydrate, reference compound] | 0.999
57 | sibutramine bromate | 1.000
58 | sibutramine hydrogen sulfate | 0.999
59 | sibutramine phosphate monohydrate [Sibutramine phosphate hydrate] | 0.999

same assay, conditions: 60° C., 4 wks

Row | Compound | content (HPLC) on 60° C. heat treatment
60 | CC(C)CC(N(C)C)C1(c2ccc(Cl)cc2)CCC1 (stereo not shown) [Sibutramine HCl hydrate, sibutramine hydrochloride monohydrate, reference compound] | 0.999
61 | sibutramine bromate | 0.999
62 | sibutramine hydrogen sulfate | 0.999
63 | sibutramine phosphate monohydrate [Sibutramine phosphate hydrate] | 1.000

same assay, conditions: Initial

Row | Compound | content (HPLC) on 60° C. heat treatment
64 | CC(C)CC(N(C)C)C1(c2ccc(Cl)cc2)CCC1 (stereo not shown) [Sibutramine HCl hydrate, sibutramine hydrochloride monohydrate, reference compound] | 1.000
65 | sibutramine bromate | 1.000
66 | sibutramine hydrogen sulfate | 1.000
67 | sibutramine phosphate monohydrate [Sibutramine phosphate hydrate] | 1.000
